Experimental data published in US10487082B2, “S1PR2 antagonists and uses therefor” (DALHOUSIE UNIVERSITY, priority 2015, dated 2019).
Entries after “also recorded” stand apart in the source; their conditions may differ.

Assays:
Fzd4−/− mice = assay: Retinal vasculature in Fzd4−/− mouse model of FEVR (flat-mounted retinas, iso-lectin B4 staining, confocal microscopy); assay type: in vivo; conditions: 0.5 mg/kg intraperitoneally every second day from P7 to P25, retinas at P25
Experimental: FIG. 7 illustrates that treatment of Fzd4^−/− mice with the S1PR2 antagonist JTE-013 ameliorates the FEVR phenotype. Fzd4^−/− mice were injected with 0.5 mg/kg JTE-013 intraperitoneally every second day from P7 to P25. Retinas were flat mounted at P25 and the vasculature visualized by confocal microscopy subsequent to staining with iso-lectin B4 AlexaFluor 594.
Fzd4^−/− mice were injected with 0.5 mg/kg JTE-013 intraperitoneally every second day from P7 to P25. Using standard protocols, retinas were flat mounted at P25 and the vasculature visualized by confocal microscopy subsequent to staining with iso-lectin B4 AlexaFluor 594. (Vascular development in the retina and inner ear: control by Norrin and Frizzled-4, a high-affinity ligand-receptor pair. Xu Q, Wang Y, Dabdoub A, Smallwood P M, Williams J, Woods C, Kelley M W, Jiang L, Tasman W, Zhang K, Nathans J. Cell 116, 883-95 (2004).)

S1PR2 = S1PR2 (Homo sapiens, UniProt O95136); conditions: cited from earlier work
Chain of S1PR2 (O95136 whole entry): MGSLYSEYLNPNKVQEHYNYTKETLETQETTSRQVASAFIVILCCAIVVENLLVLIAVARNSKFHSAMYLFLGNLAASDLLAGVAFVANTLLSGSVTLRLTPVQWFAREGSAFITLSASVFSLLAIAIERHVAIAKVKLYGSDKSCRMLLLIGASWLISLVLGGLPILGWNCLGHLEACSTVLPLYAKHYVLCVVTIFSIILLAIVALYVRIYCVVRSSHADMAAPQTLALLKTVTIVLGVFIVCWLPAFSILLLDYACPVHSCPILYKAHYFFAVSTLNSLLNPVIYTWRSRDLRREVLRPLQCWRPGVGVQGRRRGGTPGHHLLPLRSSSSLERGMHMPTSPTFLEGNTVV

Cc1nn(C)c2nc(NNC(=O)Nc3cc(Cl)nc(Cl)c3)cc(C(C)C)c12 [JTE-013, 1-(2,6-dichloro-4-pyridyl)-3-[(4-isopropyl-1,3-dimethyl-pyrazolo[3,4-b]pyridin-6-yl)amino]urea]
retinal vascular patterning / FEVR retinal vascularization defects (Fzd4−/− mice): substantial restoration of normal retinal vascular patterning; also recorded: able to ameliorate FEVR retinal vascularization defects
affinity for S1PR2 (S1PR2): 18 nM
specificity for S1PR2 versus other S1PRs (S1PR2): 100 fold
